# Reference: a melting point compilation (Tetko et al.; mined from patent text by program, amines drawn as free bases though some values may be those of a salt)
row,SMILES,melting point
1,CC1CCC2(C(=O)O)CCC3(C)C(=CCC4C5(C)CC(O)C(O)C(C)(C)C5CCC43C)C2C1C (stereo unspecified),242 to 244 °C
2,N#Cc1cc(=O)cc(-c2ccccc2)o1,146 to 149 °C
3,CC(O)c1cc2c(Cl)cc(F)c(-n3c(=O)cc(C(F)(F)F)n(C)c3=O)c2o1 (stereo unspecified),154 to 157 °C
4,O=S(=O)(c1ccccc1)n1c(Cc2cccc(-c3cc4ccccc4n3S(=O)(=O)c3ccccc3)c2)cc2ccccc21,76 to 78 °C
5,CC(C)n1nc(-c2c(-c3ccccc3)nn3ccc(N4CCN(c5ccccn5)CC4)cc23)ccc1=O,221 to 222 °C
6,O=C(c1ccc(-c2ccccc2)cc1)N1Cc2ccccc2Oc2ccccc21,93 to 95 °C
7,O=C(c1ccccc1)N(N=Cc1ccccc1)c1ccccc1F,97 to 99 °C
8,CNc1nc(Nc2ccc(Cl)c(Cl)c2)ncc1NS(=O)(=O)Cc1ccccc1,233 to 235 °C
9,Cc1ccc(C)c2c1CCC2=NNC(N)=Nc1c(Cl)cccc1Cl,> 275 °C
10,"Cc1cccc(Sc2ccc3c(c2)CCC2N(C)C(=O)CCC32C)c1 (single isomer, unassigned; (+))",103 to 104 °C
11,CC=CC(C)=C1C(=O)OC(=O)C1c1cc(C)n(-c2ccc(C)cc2)c1C (stereo unspecified),129 °C
12,CN1CCC(c2c[nH]c3ccc(C(=O)c4ccc(Cl)cc4)cc23)CC1,133 °C
13,COc1cc(N2CCCN(C[C@@H](C)O)CC2)ccc1Nc1ncc2ccc(-c3ccccc3OC)n2n1,70 to 79 °C
14,CC(=O)N1CCN=C1Nc1cc(C)nn1-c1ccc(F)cc1,189 to 191 °C
15,Cc1cc(-c2nnc3cc(C(C)(C)C)c(OCc4cn(C)nn4)nn23)no1,219 to 221 °C
16,Nc1ccc(-c2nc(Cc3ccccc3)no2)cc1Br,144 to 145 °C
17,CCOC(=O)c1c(CN2CCOCC2)nc2cc3c(cc2c1-c1ccc(OC)c(OC)c1)OCCO3,174 to 175 °C
18,COc1cc(Nc2c(C#N)cnc3cc(N4CCC(N5CCCC5)CC4)c(OC)cc23)c(Cl)cc1Cl,225 to 227 °C
19,Cc1cccc(C2=NCSC2(c2ccnc(C)c2)N2CCOC2=O)c1 (stereo unspecified),80 to 82 °C
20,CCCCCCCCCCCCCCCCCCS(=O)(=O)c1ccc(C)cc1,79 to 80 °C
21,O=C1c2ccccc2C(=O)c2oc(-c3ccc(F)cc3)nc21,> 260 °C
22,CC1c2cc(O)ccc2-c2c1cc1cc(O)ccc1c2Cl (stereo unspecified),215 to 220 °C
23,O=C(O)c1c(Br)ccc(OCc2ccccc2Cl)c1OCc1ccccc1Cl,156 to 158 °C
24,Cc1c(C)c2c(c(C)c1NC(=O)c1cccs1)C(c1ccc(C(C)C)cc1)C(C)(C)O2 (stereo unspecified),222 to 224 °C

row,SMILES,melting point
1,CN(C)c1cccc2c(S(=O)(=O)Nc3ccc(Cl)nn3)cccc12,153 to 154 °C
2,CNC(=O)c1cnn(-c2ccc(Cl)cc2Cl)c1C(F)(F)F,143 to 144 °C
3,N#Cc1ccc(-c2cncc(OC3SCC(O)C(O)C3O)c2)cc1Cl (stereo unspecified),202 to 204 °C
4,COc1ccc2c(c1)c(OC(C)C)c(C(N)=O)n2C,147 to 149 °C
5,Cn1cc(C2=CCN(CCCN3c4cccc5cccc(c45)S3(=O)=O)CC2)c2ccccc21,161 °C
6,CCCCCCCCOc1ccc(-c2cnc(-c3ccc(OCc4ccccc4)c(F)c3F)nc2)cn1,120 °C
7,CN1CCCC(O)(c2cccc3c2ccn3C)C1 (stereo unspecified),90 °C
8,COc1ccc(CNc2c(NC(C)(C)C)c(=O)c2=O)c(OC)c1,225 to 226 °C
9,CCCCCS(=O)(=O)NCC(C)Cc1ccc(OCCOC)cc1Oc1ncc(C(F)(F)F)cc1Cl (stereo unspecified),80 to 82 °C
10,COc1cccc(-n2c(-c3cc(-c4ccccc4)c(N4CCOCC4)s3)nc3ccccc3c2=O)c1,269 to 272 °C
11,CCOC(=O)C(=NO)C(=O)Nc1ccc(Cl)cc1C(=O)c1ccccc1,98 to 105 °C
12,COc1ccc2cnc(Nc3ccc(N4CCNCC4)cn3)nc2c1C1CCCC1,> 200 °C
13,COc1cc(-c2ccc(C)cc2)cc2oc(=O)c(C)c(C)c12,123 °C
14,O=C(Nc1ccc(-n2nc(C(F)(F)F)cc2-c2cccnc2)cc1)c1ccccc1F,138 to 140 °C
15,CCC(O)c1cc2cc(O)c(Cl)c(Cl)c2s1 (stereo unspecified),145 to 146 °C
16,Sc1nccc(-c2ccccc2)n1,203 to 205 °C
17,CC1CN(c2nnc(N3CCOC(C)C3)c3cc(-c4ccccc4)ncc23)CCO1 (stereo unspecified),75 to 81 °C
18,COc1ccccc1-c1nc2cc(C)ccc2c(=O)[nH]1,165 to 170 °C
19,Clc1nc2cc(Br)c(Br)c(Br)c2[nH]1,263 to 266 °C
20,CN(C)Cc1cccc(Cc2cnc(N[N+](=O)[O-])[nH]c2=O)c1,232 to 235 °C
21,Cc1c(-c2ccccc2)oc2c(CS(=O)(=O)CCCl)cccc2c1=O,158 to 161 °C
22,CC(C)CN1C(=O)c2cnc(-c3ccccc3)nc2Nc2ccccc21,203 to 204 °C
23,COc1ccc(-n2c(=O)n(O)c(=O)c3cc(F)c(N4CCCC4)cc32)cc1,224 to 226 °C
24,O=C(c1ccc(O)cc1)c1nn(C2CCCC2)c2c(C(F)(F)F)cccc12,225 to 226 °C

# The next lines start with the values.
row,melting point,SMILES
1,195 to 196 °C,CC(C)CNC(=S)Nc1cccc(NC(=O)Nc2ccc(Cl)cc2)c1
2,169 to 171 °C,CNC(=O)COc1ccc(C(=O)CN2CCN(c3ccncc3)CC2)cc1
3,100 to 102 °C,O=C(O)Cc1ccn(-c2ccc(F)cc2)c1
4,212 to 214 °C,COc1ccccc1NC(=S)NC(NC(=O)c1ccc(C)cc1)C(F)(F)F (stereo unspecified)
5,114 to 115 °C,O=C1NCC(C(=O)NCCO[N+](=O)[O-])S1 (stereo unspecified)
6,156 °C,Cc1cc(C(F)(F)C(F)(F)F)nc(N(C(N)=O)c2ccccc2[N+](=O)[O-])n1
7,223 to 225 °C,O=C(O)c1cn(C2CC2)c2nc(N3CCC(c4ccncc4)C3)c(F)cc2c1=O (stereo unspecified)
8,184 to 185 °C,CCOC(=O)c1cnn(-c2ccccc2)c1NC(=O)Nc1ccccc1
9,47 to 49 °C,CC(=O)CS(=O)(=O)N(C)C
10,179 to 180 °C,COc1ccc2c(c1)C(=O)CC21CNC(=O)C1 (stereo unspecified)
11,123 °C,CCCCCCCNC(=O)Nc1ccccc1C(=O)NC1CCN(Cc2c(C(C)C)nc(C(C)C)c(COC)c2-c2ccc(F)cc2)CC1
12,70 to 72 °C,O=C(O)CCCC=C1CCCCCCCCCCC1
13,140 to 143 °C,CC(=O)Oc1ccc(C2CC(=O)OC(=O)C2)cc1
14,228 to 230 °C,CN(Cc1cccc2c1CN(C1CCC(=O)NC1=O)C2=O)C(=O)Nc1cc(F)cc(F)c1 (stereo unspecified)
15,264 to 269 °C,CC(C)(C)N1CC(COc2cccc3c(S)nccc23)OC1=O (stereo unspecified)
16,214 to 217 °C,O=C(O)c1cc2ccc(OCCNC[C@H](O)COc3ccccc3)cc2o1
17,120 to 124 °C,Cn1ccnc1-c1ccc(C(=O)CNC(=O)[C@H](Cc2ccccn2)NC(=O)OC(C)(C)C)cc1
18,101 °C,CCOP(=O)(OCC)c1ccc(C(=O)O)cc1
19,109 to 118 °C,Cc1cc(F)ccc1-c1ccc(S(=O)(=O)N2c3ccccc3CC2C(=O)NCCOc2ccc(C(=O)O)c(F)c2)cc1 (stereo unspecified)
20,170 to 175 °C,CC(=O)N1CCc2cc(Br)cc(C#N)c21
21,67 to 68 °C,O=C(NCCCl)NOCc1ccccc1
22,107 to 109 °C,COc1cc(C(OC(C)=O)C(COC(C)=O)[N+](=O)[O-])cc(OC)c1OC (stereo unspecified)
23,168 °C,CCOc1ccc2c(c1)C(C)(c1cc(C(=O)ON3C(=O)CCC3=O)ccc1Cl)C(=O)N2S(=O)(=O)c1ccc(C(=O)NC(C)(C)C)cc1 (stereo unspecified)
24,96 to 97 °C,CCCCCS(=O)(=O)NC(=O)CCCc1ccc(OCCOC)cc1Oc1ncc(C(F)(F)F)cc1Cl

row,melting point,SMILES
1,109 to 110 °C,CC1Cc2cc3c(cc2C(c2ccc([N+](=O)[O-])cc2)=NN1c1nnns1)OCO3 (stereo unspecified)
2,190 to 191 °C,COC1(NC(=O)c2ccccc2)CC1
3,194 to 196 °C,CC(=O)NC[C@H]1CN(c2ccc(N3CCC(=C(C#N)n4cncn4)CC3)c(F)c2)C(=O)O1
4,112 to 113 °C,CCCC1(C)OC(=O)C(c2ccc(F)cc2)=C1c1ccc(S(C)(=O)=O)cc1 (stereo unspecified)
5,91 to 93 °C,COc1ccc(OC)c2c1CC[C@](O)(C(=O)O)C2
6,161 to 162 °C,COc1cccc(C=C2C(=O)c3ccccc3N2C(C)=O)c1[N+](=O)[O-]
7,98 to 101 °C,CSc1nccc(CC(=O)c2cccc(Br)c2)n1
8,140 to 142 °C,CCOC(=O)c1cnc2n(c1=O)C(C)CC=C2N(C)c1ccccc1 (stereo unspecified)
9,131 to 132 °C,Cc1nc(-c2cn(Cc3ccc(C(F)(F)F)cc3)nn2)sc1C(=O)NCc1ccccc1
10,149 to 150 °C,CCn1nc(Cc2ccc(NC(=O)/C=C/c3cnn(C)c3-c3ccc(F)cc3)cc2)oc1=O
11,142 to 143 °C,CN(C(=O)c1ccc(CS(=O)(=O)Cn2cnc3ccccc32)cc1)C1CCCCC1
12,170 °C,CCOC(=O)C1=C(N)NC(N)=C(C(=O)OCC)C1c1cccc(C(F)(F)F)c1
13,266 °C,CCn1cc(C(=O)O)c(=O)c2cc(Br)c(N3CCOCC3)cc21
14,215 to 220 °C,CC(=O)Nc1c(O)cc(C(=O)O)cc1[N+](=O)[O-]
15,122 °C,COc1ccc(-c2nc(N)sc2CCC2CCCCC2)c(OC)c1
16,142 to 147 °C,COC(=O)c1scc(Cl)c1NC(C)=O
17,233 to 235 °C,CC(C)Oc1cccc(-c2ccc3cnc(Nc4ccc(C5CCN(CC(N)=O)CC5)cc4)nn23)c1
18,74 to 77 °C,COC(=O)c1ccc(C=C(C)[N+](=O)[O-])c(Cl)c1
19,220 to 222 °C,CSC1NC(=O)N(c2cccs2)C(=O)N1
20,> 300 °C,O=C1C(=O)c2c(nc3ccccn23)-c2cc([N+](=O)[O-])ccc21
21,301 to 303 °C,COC(=O)c1cc(-c2ccc3c(=O)[nH]c(=O)[nH]c3n2)ccc1OC
22,> 250 °C,CCOc1cccc2c1C(=NNc1ccc(S(N)(=O)=O)cc1)C(=O)N2
23,106 to 109 °C,CC(=O)c1ccc(OCCCOc2cc([N+](=O)[O-])c(C)cc2Br)c(CCC(F)(F)F)c1O
24,62.5 to 65.5 °C,CN(C)CCn1c(=O)sc2ccc(Cl)cc21
